In patent publication US8461183B2, “PPAR agonist compounds, preparation and uses” (Genfit, priority 2008, dated 2013):
pEC50: −log10 of the molar value.

Key:
[1] = tested on: ApoE2/E2 dyslipidemic mouse; experiment: Plasma lipids in the ApoE2/E2 dyslipidemic mouse; format: in vivo; details: 7 days
Experimental: The hypolipemic properties of the compounds according to the invention were evaluated in vivo by determination of plasma lipids and by analysis of gene expression of targets genes of PPARs in the liver after oral treatment of a dyslipidemic mouse with the compounds according to the invention.
The murine model used is the mouse of type ApoE2/E2, a mouse transgenic for the E2 isoform of human apolipoprotein E (Sullivan P M et al., 1998). In humans, this apolipoprotein, a constituent of low and very low density lipoproteins (LDL-VLDL), occurs in three isoforms E2, E3 and E4. […] Because of this, clearance of VLDLs is almost zero. This leads to accumulation of […] and mixed, so-called type III hyperlipidemia (raised cholesterol and triglycerides).
PPARα regulates the expression of genes involved in lipid transport (apolipoproteins such as Apo AI, Apo AII and Apo CIII, membrane transporters such as FAT) or the catabolism of lipids (ACO, CPT-I or CPT-II, enzymes of β-oxidation of fatty acids). Treatment with PPARα activators is therefore reflected, both in humans and in rodents, in a decrease in levels of circulating triglycerides. Measurement of plasma lipids after treatment with the compounds according to the invention is therefore an indicator of the PPARα agonist character and therefore of the hypolipemic action of the compounds according to the invention.
Apo E2/E2 transgenic mice were kept in a cycle of light and darkness of 12 hours/12 hours at a constant temperature of 20±3° C. After acclimation for one week, the mice were weighed and put into groups of 6 animals selected in such a way that the distribution of their bodyweight and of their plasma lipid values determined first before the experiment are uniform. The compounds tested were suspended in carboxymethylcellulose (Sigma C4888) and administered at the chosen dose by stomach tube, at a rate of once a day for 7 days at the chosen dose. The animals had free access to water and food. At the end of the experiment, the animals were anesthetized after fasting for 4 hours, a blood sample was taken on anticoagulant (EDTA), then the mice were weighed and euthanased. The plasma was separated by centrifugation at 3000 rev/min for 20 minutes, and the samples were stored at +4° C. for the biochemical assays. Samples of liver were taken and frozen immediately in liquid nitrogen and then stored at −80° C. for subsequent analyses.
The plasma concentrations of lipids (total cholesterol, HDL-cholesterol, and free fatty acids) were measured by enzyme assays (bioMérieux-Lyons-France) according to the supplier's recommendations.

hPPARδ = target: T1, hPPARδ (Homo sapiens, UniProt Q03181); experiment: Gal4-hPPARδ chimera transactivation (luciferase) in COS-7 cells; format: cell-based; details: COS-7 cells, Gal4-hPPARδ, 24 hours; for pEC50: luciferase, read-out: PPARδ EC50; for Emax: relative to maximum activation obtained with GW501516, read-out: PPARδ TOP % (maximum activation)
T1 construct: corresponding to the DEF domains (structural elements of the promoter of the PPARs: D=hinge, EF=ligand fixation domain and AF2 fixation site); expressed in transfected cells; host or cells: COS-7 (monkey kidney fibroblasts)
T1 sequence (Q03181 211-439 limits assumed): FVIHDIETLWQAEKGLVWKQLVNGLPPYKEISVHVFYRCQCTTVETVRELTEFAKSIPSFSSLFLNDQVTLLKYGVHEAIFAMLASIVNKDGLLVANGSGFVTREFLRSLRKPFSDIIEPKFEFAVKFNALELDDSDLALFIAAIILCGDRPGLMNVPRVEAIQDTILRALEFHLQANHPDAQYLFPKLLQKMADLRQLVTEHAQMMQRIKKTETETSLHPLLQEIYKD
Outline: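 COS-7 cells transfected with Gal4-DBD fused to human PPARγ or PPARδ DEF (hinge/ligand-binding) domain plus Gal4(RE)_TkpGL3 luciferase reporter (1:10).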

hPPARα = target: T2, hPPARα (Homo sapiens, UniProt Q07869); experiment: Gal4-hPPARα chimera transactivation (luciferase) in COS-7 cells; format: cell-based; details: COS-7 cells, Gal4-hPPARα, 24 hours; for pEC50: luciferase, read-out: PPARα EC50; for Emax: relative to maximum activation obtained with fenofibric acid, read-out: PPARα TOP % (maximum activation)
T2 construct: corresponding to the DEF domains (structural elements of the promoter of the PPARs: D=hinge, EF=ligand fixation domain and AF2 fixation site); expressed in transfected cells; host or cells: COS-7 (monkey kidney fibroblasts)
T2 sequence (Q07869 239-466 limits assumed): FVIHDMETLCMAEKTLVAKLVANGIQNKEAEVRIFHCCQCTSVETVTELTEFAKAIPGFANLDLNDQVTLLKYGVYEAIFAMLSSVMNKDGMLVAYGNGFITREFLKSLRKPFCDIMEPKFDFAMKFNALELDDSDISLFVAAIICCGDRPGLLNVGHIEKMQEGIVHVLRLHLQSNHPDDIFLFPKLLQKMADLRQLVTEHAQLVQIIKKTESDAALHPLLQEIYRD
Outline: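 COS-7 cells transiently co-transfected with Gal4 DBD–human PPARα, γ or δ DEF-domain chimeras plus Gal4(RE)_TkpGL3 luciferase reporter (1/10), seeded serum-free, then compound-treated 24 h at 37 °C in 1% Ultroser. Luciferase read after lysis; EC50 and TOP % relative to maximal activation by fenofibric acid (α), rosiglitazone (γ) or GW501516 (δ).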

pEC50 (hPPARδ) | Emax (hPPARδ) [%] | pEC50 (hPPARα) | Emax (hPPARα) [%] | SMILES | plasma level of HDL-cholesterol ([1]; 10 and 100 mpk oral) | plasma total cholesterol ([1]; 10 and 100 mpk oral) | plasma level of free fatty acids ([1]; 100 mpk oral) | plasma total cholesterol ([1]; 100 mpk oral)
5.70 | 109 | 6.84 | 48.3 | COc1nc(-c2ccccc2)ccc1COc1ccc(OCC(=O)O)cc1 [Cpd 2, 2-(4-((2-methoxy-6-phenylpyridin-3-yl)methoxy)phenoxy)ethanoic acid] | dose-dependent increase | decreased |  | 
5.06 | 115 | 5.83 | 66.7 | COc1nc(-c2ccccc2)ccc1CNc1ccc(OCC(=O)O)cc1 [Cpd 4, 2-(4-(((2-methoxy-6-phenylpyridin-3yl)methyl)amino)phenoxy)ethanoic acid] | dose-dependent increase | decreased |  | 
5.50 | 95.1 | 5.63 | 68 | COc1nc(-c2ccccc2)ccc1CNc1ccc(CCC(=O)O)cc1 [Cpd 19, 3-(4-(((2-methoxy-6-phenylpyridin-3-yl)methyl)amino)phenyl)propanoic acid] |  |  | decrease | decreased
6.11 | 94.1 | 6.43 | 76.8 | COc1nc(-c2ccc(C(F)(F)F)cc2)ccc1COc1ccc(OCC(=O)O)cc1 [Cpd 24, 2-(4-((2-methoxy-6-(4-(trifluoromethyl)phenyl)pyridin-3-yl)methoxy)-phenoxy)ethanoic acid] |  |  |  | 
